Where two headings read alike, the source gives them in different places.
What was measured:
[1] = molecular target: T1, androgen receptor (AR) (Homo sapiens, UniProt P10275); test: AR antagonist luciferase gene reporter assay (AR plasmid pSVAR0 + MMTV-Luc, DHT at EC80)
T1 sequence (P10275 1-920): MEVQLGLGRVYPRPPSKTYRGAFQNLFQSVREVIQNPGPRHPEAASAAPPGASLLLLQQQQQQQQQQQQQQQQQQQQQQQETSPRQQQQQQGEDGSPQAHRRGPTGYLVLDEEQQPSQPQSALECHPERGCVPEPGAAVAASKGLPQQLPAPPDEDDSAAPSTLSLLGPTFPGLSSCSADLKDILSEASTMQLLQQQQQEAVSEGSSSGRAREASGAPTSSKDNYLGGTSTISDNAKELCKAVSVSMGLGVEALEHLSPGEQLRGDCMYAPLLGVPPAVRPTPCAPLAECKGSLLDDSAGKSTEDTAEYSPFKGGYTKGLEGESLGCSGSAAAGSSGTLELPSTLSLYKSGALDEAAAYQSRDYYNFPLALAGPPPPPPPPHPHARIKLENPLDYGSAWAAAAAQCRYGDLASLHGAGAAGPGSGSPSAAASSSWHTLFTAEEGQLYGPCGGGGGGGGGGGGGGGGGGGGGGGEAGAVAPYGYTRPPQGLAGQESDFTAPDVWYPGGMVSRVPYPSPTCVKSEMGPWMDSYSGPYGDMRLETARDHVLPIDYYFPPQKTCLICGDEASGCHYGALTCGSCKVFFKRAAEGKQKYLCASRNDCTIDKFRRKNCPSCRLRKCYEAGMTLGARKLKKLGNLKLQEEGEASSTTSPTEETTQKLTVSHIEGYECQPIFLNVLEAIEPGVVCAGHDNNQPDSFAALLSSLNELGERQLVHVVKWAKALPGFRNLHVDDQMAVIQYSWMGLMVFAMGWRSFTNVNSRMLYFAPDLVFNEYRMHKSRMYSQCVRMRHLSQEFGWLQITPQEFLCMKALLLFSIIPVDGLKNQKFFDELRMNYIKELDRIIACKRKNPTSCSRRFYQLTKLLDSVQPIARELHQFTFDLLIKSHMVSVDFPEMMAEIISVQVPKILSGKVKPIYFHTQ

[2] = Antagonist Activity in CV-1 IC50, luciferase reporter in AR-transfected cells, DHT at EC80, 24 h incubation, means ± SD of three independent experiments

Compound	Antagonist Activity in CV-1 Efficacy [1]	IC50 [1, 2]	melting point	IC50 [1]	Antagonist Activity in CV-1 Efficacy ([1]; luciferase reporter in AR-transfected cells, DHT at EC80, 24 h, enzalutamide = 100, means ± SD of three independent experiments)
Cc1ccc(N2C(=S)N(c3ccc(C#N)c(C(F)(F)F)c3)C(=O)C2(C)CO)cc1 (stereo not drawn) [6b, 4-(4-(hydroxymethyl)-4-methyl-5-oxo-2-thioxo-3-(p-tolyl)imidazolidin-1-yl)-2-(trifluoromethyl)benzonitrile]	86 ± 4.2%	549 ± 47.8 nM	190 to 192 °C	–	–
CC1(CO)C(=O)N(c2ccc(C#N)c(C(F)(F)F)c2)C(=S)N1c1ccc(Cl)cc1 (stereo not drawn) [6d, 4-(3-(4-chlorophenyl)-4-(hydroxymethyl)-4-methyl-5-oxo-2-thioxoimidazolidin-1-yl)-2-(trifluoromethyl)benzonitrile]	96 ± 3.8%	79.3 ± 13.2 nM	205 to 207 °C	–	–
CC1(CO)C(=O)N(c2ccc(C#N)c(C(F)(F)F)c2)C(=S)N1c1ccc(Br)cc1 (stereo not drawn) [6e, 4-(3-(4-bromophenyl)-4-(hydroxymethyl)-4-methyl-5-oxo-2-thioxoimidazolidin-1-yl)-2-(trifluoromethyl)benzonitrile]	86 ± 6.5%	117 ± 16.3 nM	206 to 208 °C	–	–
COc1ccc(N2C(=S)N(c3ccc(C#N)c(C(F)(F)F)c3)C(=O)C2(C)CO)cc1 (stereo not drawn) [6f, 4-(4-(hydroxymethyl)-3-(4-methoxyphenyl)-4-methyl-5-oxo-2-thioxoimidazolidin-1-yl)-2-(trifluoromethyl)benzonitrile]	89 ± 3.7%	286 ± 29.5 nM	183 to 185 °C	–	–
CC1(CO)C(=O)N(c2ccc(C#N)c(C(F)(F)F)c2)C(=S)N1c1ccc(C#N)cc1 (stereo not drawn) [6g, 4-(3-(4-cyanophenyl)-4-(hydroxymethyl)-4-methyl-5-oxo-2-thioxoimidazolidin-1-yl)-2-(trifluoromethyl)benzonitrile]	102 ± 15.5%	338 ± 44.7 nM	234 to 236 °C	–	–
CC1(CO)C(=O)N(c2ccc(C#N)c(C(F)(F)F)c2)C(=S)N1c1ccc([N+](=O)[O-])cc1 (stereo not drawn) [6h, 4-(4-(hydroxymethyl)-4-methyl-3-(4-nitrophenyl)-5-oxo-2-thioxoimidazolidin-1-yl)-2-(trifluoromethyl)benzonitrile]	–	79600 nM	206 to 208 °C	–	–
CC1(CO)C(=O)N(c2ccc(C#N)c(C(F)(F)F)c2)C(=S)N1c1ccc(C(F)(F)F)cc1 (stereo not drawn) [6i, 4-(4-(hydroxymethyl)-4-methyl-5-oxo-2-thioxo-3-(4-(trifluoromethyl)phenyl)imidazolidin-1-yl)-2-(trifluoromethyl)benzonitrile]	102 ± 8.9%	68.2 ± 4.6 nM	178 to 180 °C	–	–
COC(=O)c1ccc(N2C(=S)N(c3ccc(C#N)c(C(F)(F)F)c3)C(=O)C2(C)CO)cc1 (stereo not drawn) [6j, methyl 4-(3-(4-cyano-3-(trifluoromethyl)phenyl)-5-(hydroxymethyl)-5-methyl-4-oxo-2-thioxoimidazolidin-1-yl)benzoate]	95 ± 4.2%	532 ± 58.2 nM	168 to 170 °C	–	–
CNC(=O)c1ccc(N2C(=S)N(c3ccc(C#N)c(C(F)(F)F)c3)C(=O)C2(C)CO)cc1F (stereo not drawn) [6k, 4-(3-(4-cyano-3-(trifluoromethyl)phenyl)-5-(hydroxymethyl)-5-methyl-4-oxo-2-thioxoimidazolidin-1-yl)-2-fluoro-N-methylbenzamide]	88 ± 3.5%	126 nM	–	–	–
CN1CCC(Oc2ccc(N3C(=S)N(c4ccc(C#N)c(C(F)(F)F)c4)C(=O)C3(C)CO)cc2)CC1 (stereo not drawn) [6l, 4-(4-(hydroxymethyl)-4-methyl-3-(4-((1-methylpiperidin-4-yl)oxy)phenyl)-5-oxo-2-thioxoimidazolidin-1-yl)-2-(trifluoromethyl)benzonitrile]	92 ± 2.9%	337 nM	117 to 119 °C	–	–
CC1(CO)C(=O)N(c2ccc(C#N)c(C(F)(F)F)c2)C(=O)N1c1ccccc1 (stereo not drawn) [7a, 4-(4-(hydroxymethyl)-4-methyl-2,5-dioxo-3-phenylimidazolidin-1-yl)-2-(trifluoromethyl)benzonitrile]	101 ± 15.1%	94.8 ± 12.8 nM	187 to 189 °C	–	–
Cc1ccc(N2C(=O)N(c3ccc(C#N)c(C(F)(F)F)c3)C(=O)C2(C)CO)cc1 (stereo not drawn) [7b, 4-(4-(hydroxymethyl)-4-methyl-2,5-dioxo-3-(p-tolyl)imidazolidin-1-yl)-2-(trifluoromethyl)benzonitrile]	95 ± 12.3%	115 ± 17.6 nM	156 to 158 °C	–	–
CC1(CO)C(=O)N(c2ccc(C#N)c(C(F)(F)F)c2)C(=O)N1c1ccc(F)cc1 (stereo not drawn) [7c, 4-(3-(4-fluorophenyl)-4-(hydroxymethyl)-4-methyl-2,5-dioxoimidazolidin-1-yl)-2-(trifluoromethyl)benzonitrile]	94 ± 14.6%	67.3 ± 15.5 nM	208 to 210 °C	–	–
CC1(CO)C(=O)N(c2ccc(C#N)c(C(F)(F)F)c2)C(=O)N1c1ccc(Cl)cc1 (stereo not drawn) [7d, 4-(3-(4-chlorophenyl)-4-(hydroxymethyl)-4-methyl-2,5-dioxoimidazolidin-1-yl)-2-(trifluoromethyl)benzonitrile]	94 ± 9.7%	68.6 ± 22.4 nM	152 to 154 °C	–	–
CC1(CO)C(=O)N(c2ccc(C#N)c(C(F)(F)F)c2)C(=O)N1c1ccc(Br)cc1 (stereo not drawn) [7e, 4-(3-(4-bromophenyl)-4-(hydroxymethyl)-4-methyl-2,5-dioxoimidazolidin-1-yl)-2-(trifluoromethyl)benzonitrile]	95 ± 11.2%	84.2 ± 37.1 nM	102 to 104 °C	–	–
COc1ccc(N2C(=O)N(c3ccc(C#N)c(C(F)(F)F)c3)C(=O)C2(C)CO)cc1 (stereo not drawn) [7f, 4-(4-(hydroxymethyl)-3-(4-methoxyphenyl)-4-methyl-2,5-dioxoimidazolidin-1-yl)-2-(trifluoromethyl)benzonitrile]	90 ± 13.3%	416 ± 230 nM	128 to 130 °C	–	–
CC1(CO)C(=O)N(c2ccc(C#N)c(C(F)(F)F)c2)C(=O)N1c1ccc(C#N)cc1 (stereo not drawn) [7g, 4-(3-(4-cyanophenyl)-4-(hydroxymethyl)-4-methyl-2,5-dioxoimidazolidin-1-yl)-2-(trifluoromethyl)benzonitrile]	98 ± 11.6%	61 ± 6.1 nM	–	–	–
CC1(CO)C(=O)N(c2ccc(C#N)c(C(F)(F)F)c2)C(=O)N1c1ccc([N+](=O)[O-])cc1 (stereo not drawn) [7h, 4-(4-(hydroxymethyl)-4-methyl-3-(4-nitrophenyl)-2,5-dioxoimidazolidin-1-yl)-2-(trifluoromethyl)benzonitrile]	93 ± 9.3%	48.9 ± 12.7 nM	160 to 162 °C	–	–
CC1(CO)C(=O)N(c2ccc(C#N)c(C(F)(F)F)c2)C(=O)N1c1ccc(C(F)(F)F)cc1 (stereo not drawn) [7i, 4-(4-(hydroxymethyl)-4-methyl-2,5-dioxo-3-(4-(trifluoromethyl)phenyl)imidazolidin-1-yl)-2-(trifluoromethyl)benzonitrile]	99 ± 12.5%	149 ± 30.4 nM	161 to 163 °C	–	–
COC(=O)c1ccc(N2C(=O)N(c3ccc(C#N)c(C(F)(F)F)c3)C(=O)C2(C)CO)cc1 (stereo not drawn) [7j, methyl 4-(3-(4-cyano-3-(trifluoromethyl)phenyl)-5-(hydroxymethyl)-5-methyl-2,4-dioxoimidazolidin-1-yl)benzoate]	96 ± 10.8%	139 ± 36.2 nM	139 to 141 °C	–	–
CC1(CO)C(=O)N(c2ccc(C#N)c(C(F)(F)F)c2)C(=S)N1c1ccc(O)cc1 (stereo not drawn) [11a, 4-(4-(hydroxymethyl)-3-(4-hydroxyphenyl)-4-methyl-5-oxo-2-thioxoimidazolidin-1-yl)-2-(trifluoromethyl)benzonitrile]	90 ± 7.5%	3640 ± 932 nM	203 to 205 °C	–	–
CC1(CO)C(=O)N(c2ccc(C#N)c(C(F)(F)F)c2)C(=O)N1c1ccc(O)cc1 (stereo not drawn) [11b, 4-(4-(hydroxymethyl)-3-(4-hydroxyphenyl)-4-methyl-2,5-dioxoimidazolidin-1-yl)-2-(trifluoromethyl)benzonitrile]	100 ± 3.4%	2360 ± 1710 nM	110 to 112 °C	–	–
CNC(=O)c1ccc(N2C(=S)N(c3cnc(C#N)c(C(F)(F)F)c3)C(=O)C2(C)CO)cc1F (stereo not drawn) [19c, 4-(3-(6-cyano-5-(trifluoromethyl)pyridin-3-yl)-5-(hydroxymethyl)-5-methyl-4-oxo-2-thioxoimidazolidin-1-yl)-2-fluoro-N-methylbenzamide]	–	–	127 to 129 °C	903 ± 602 nM	55.46 ± 14.74%

From article PMC9505067, “Synthesis of Hydantoin Androgen Receptor Antagonists and Study on Their Antagonistic Activity” (Molecules, 2022)
